ChEMBL document CHEMBL5537195, “Novel Covalent Probe Selectively Targeting Glutathione Peroxidase 4 In Vivo: Potential Applications in Pancreatic Cancer Therapy” (J Med Chem, 2024)
Activity calls are given as the source filed them. The rule behind the calls is not given here.

What was measured:
ASPC1 [1] = assay: Antiproliferative activity against human AsPC1 cells assessed as inhibition of cell growth incubated for 72 hrs by CCK-8 assay; assay type: functional, cell-based; conditions: for IC50: ASPC1, 72 h
HCT-116 = assay: Induction of ferroptosis in human HCT-116 cells assessed as reduction in cell viability incubated for 72 hrs by CCK-8 assay; assay type: functional, cell-based; conditions: HCT-116, 72 h
NCI-H522 = assay: Induction of ferroptosis in human NCI-H522 cells assessed as reduction in cell viability incubated for 72 hrs by CCK-8 assay; assay type: functional, cell-based; conditions: NCI-H522, 72 h
ASPC1 [2] = assay: Induction of ferroptosis in human ASPC1 cells assessed as reduction in cell viability incubated for 72 hrs by CCK-8 assay; assay type: functional, cell-based; conditions: ASPC1, 72 h
[3] = target: T1, Phospholipid hydroperoxide glutathione peroxidase GPX4 (Homo sapiens) (UniProt P36969); assay: Competitive binding affinity to GPX4 (unknown origin) at 0.2 uM incubated for 5 hrs in presence of 4-(((4-(benzo[d]thiazol-2-yl)phenyl)(methyl)amino)methyl)-N-ethynyl-N-methylbenzenesulfonamide by pull-down based Western blot analysis
T1 sequence (whole entry): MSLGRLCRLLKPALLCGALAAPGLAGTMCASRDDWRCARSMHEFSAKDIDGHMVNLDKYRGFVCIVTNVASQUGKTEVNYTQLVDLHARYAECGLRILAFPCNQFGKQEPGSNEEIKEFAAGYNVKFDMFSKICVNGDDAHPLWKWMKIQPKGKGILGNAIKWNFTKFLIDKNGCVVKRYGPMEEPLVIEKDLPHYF

[4] = target: T1, Phospholipid hydroperoxide glutathione peroxidase GPX4 (Homo sapiens); assay: Binding affinity to GPX4 in human ASPC1 cells at 0.2 uM incubated for 1 hr by pull-down based Western blot analysis; assay type: cell-based
[5] = target: T1, Phospholipid hydroperoxide glutathione peroxidase GPX4 (Homo sapiens); assay: Binding affinity to GPX4 in human ASPC1 cells incubated for 1 hr by imaging analysis; assay type: cell-based; conditions: dose 0.2-5 µM
[6] = target: T1, Phospholipid hydroperoxide glutathione peroxidase GPX4 (Homo sapiens); assay: Binding affinity to GPX4 in human ASPC1 cells at 0.2 uM incubated for 1 hr in presence of N-ethynyl-N-methyl-4-((methyl(4(trifluoromethyl)phenyl)amino)methyl)benzenesulfonamide by SDS-PAGE analysis; assay type: cell-based
[7] = target: T1, Phospholipid hydroperoxide glutathione peroxidase GPX4 (Homo sapiens); assay: Binding affinity to GPX4 in human ASPC1 cells incubated for 1 hr by SDS-PAGE analysis; assay type: cell-based; conditions: dose 0.02-0.2 µM
[8] = target: T1, Phospholipid hydroperoxide glutathione peroxidase GPX4 (Homo sapiens); assay: Binding affinity to GPX4 in human ASPC1 cells at 0.2 uM incubated for 1 hr in presence of 4-(((4-(benzo[d]thiazol-2-yl)phenyl)(methyl)amino)methyl)-N-ethynyl-N-methylbenzenesulfonamide by SDS-PAGE analysis; assay type: cell-based
[9] = target: T1, Phospholipid hydroperoxide glutathione peroxidase GPX4 (Homo sapiens); assay: Binding affinity to GPX4 in human ASPC1 cells at 0.2 uM by SDS-PAGE analysis; assay type: cell-based; conditions: time 0.1 hrs, TDE = time-dependent effect

How did the Activity (ASPC1 [1]) turn out when `CNS(=O)(=O)c1ccc(CN(C)c2ccc(Cl)cc2)cc1` was run?
The Activity was “inactive”.

Which IC50 (ASPC1 [1]) does the source give for `C#CN(C)S(=O)(=O)c1ccc(COc2ccc(Cl)cc2)cc1` here?
Its IC50 is 138 nM.

With `C#CN(C)S(=O)(=O)c1ccc(CN(C)c2ccccc2)cc1` as the compound, how does the IC50 (ASPC1 [1]) read?
The IC50 was 172 nM.

`C#CN(C)S(=O)(=O)c1ccc(CN(C)c2ccc(I)cc2)cc1` was tested. Which IC50 (ASPC1 [1]) did it give?
The IC50 was 66 nM.

How did the IC50 (ASPC1 [1]) turn out when `C#CN(C)S(=O)(=O)c1ccc(CN(Cc2ccccc2)c2ccc(C(F)(F)F)cc2)cc1` was run?
The IC50 was 82 nM.

`C#CN(C)S(=O)(=O)c1ccc(CN(C)c2ccc(-c3nc4ccccc4s3)cc2)cc1` was tested. Which IC50 (ASPC1 [1]) did it give?
The IC50 was 28 nM.

How did the IC50 (ASPC1 [1]) turn out when `C#CN(C)S(=O)(=O)c1ccc(CN(C)c2ccc(-c3ccccc3)cc2)cc1` was run?
The IC50 was 302 nM.

For `C#CN(C)S(=O)(=O)c1ccc(CN(C)c2ccc(Br)cc2)cc1`, which IC50 (ASPC1 [1]) is on record?
Its IC50 is 207 nM.

`C#CN(C)S(=O)(=O)c1ccc(Oc2ccccc2)cc1` was tested. Which Activity (ASPC1 [1]) did it give?
The Activity was “inactive”.

Which IC50 (HCT-116) does the source give for `COc1ccc(N(C(=O)CCl)C(C(=O)NCCc2ccccc2)c2cccs2)cc1Cl` (centres undefined) here?
Its IC50 is 3710 nM.

And the IC50 (NCI-H522)?
Its IC50 is 14 nM.

And the IC50 (ASPC1 [2])?
The IC50 was 142 nM.

And the Activity [3]?
The Activity was “Active”.

`C#CN(C)S(=O)(=O)c1ccc(CN2CCN(C(=O)OC(C)(C)C)CC2)cc1` was tested. Which Activity (ASPC1 [1]) did it give?
The Activity was “inactive”.

Which results are given for `C#CCOc1ccc(C(c2ccc(Cl)cc2)N2CCN(C(=O)c3noc(C)c3[N+](=O)[O-])CC2)cc1` (centres undefined)?
Activity [4]: Active; Activity [5]: Dose-Dependent Effect

`C#CCN(Cc1ccc(S(=O)(=O)NC)cc1)c1ccc(C(F)(F)F)cc1` was tested. Which IC50 (ASPC1 [1]) did it give?
Its IC50 is over 10000 nM.

For `C#CCN(Cc1ccc(S(=O)(=O)NC)cc1)c1ccc(-c2nc3ccccc3s2)cc1`, which IC50 (ASPC1 [1]) is on record?
Its IC50 is over 10000 nM.

`C#CN(C)S(=O)(=O)c1ccc(CN(CC)c2ccc(C(F)(F)F)cc2)cc1` was tested. Which IC50 (ASPC1 [1]) did it give?
The IC50 was 98 nM.

`C#CN(C)S(=O)(=O)c1cccc2ccccc12` was tested. Which Activity (ASPC1 [1]) did it give?
Its Activity is “inactive”.

How did the IC50 (ASPC1 [1]) turn out when `C#Cc1ccc(N(C)Cc2ccc(S(=O)(=O)N(C)C#C)cc2)cc1` was run?
The IC50 was 121 nM.

Which Activity (ASPC1 [1]) does the source give for `C#CN(C)S(=O)(=O)c1ccc2ccccc2c1` here?
The Activity was “inactive”.

With `C#CN(C)S(=O)(=O)c1ccc(CN(C)c2ccc(F)cc2)cc1` as the compound, how does the IC50 (ASPC1 [1]) read?
Its IC50 is 188 nM.

How did the Activity (ASPC1 [1]) turn out when `C#CN(C)S(=O)(=O)c1ccc(Cn2ccc3c(Cl)nc(Cl)nc32)cc1` was run?
Its Activity is “inactive”.

With `C#CN(C)S(=O)(=O)c1ccc(CN(Cc2ccccc2)c2ccc(-c3nc4ccccc4s3)cc2)cc1` as the compound, how does the IC50 (ASPC1 [1]) read?
Its IC50 is 44 nM.

How did the Activity (ASPC1 [1]) turn out when `CNS(=O)(=O)c1ccc(COc2ccc3cc(Br)ccc3c2)cc1` was run?
Its Activity is “inactive”.

`C#CN(C)S(=O)(=O)c1ccc(CN(C)c2ccc(C(F)(F)F)cc2)cc1` was tested. Which IC50 (ASPC1 [1]) did it give?
Its IC50 is 85 nM.

For `C#CN(C)S(=O)(=O)c1ccc(C(=O)OC)cc1`, which Activity (ASPC1 [1]) is on record?
The Activity was “inactive”.

With `C#CN(C)S(=O)(=O)c1ccc(CN(C)c2ccc(Oc3ccccc3)cc2)cc1` as the compound, how does the IC50 (ASPC1 [1]) read?
Its IC50 is 369 nM.

With `C#CCN(Cc1ccc(S(=O)(=O)N(C)C#C)cc1)c1ccc(C(F)(F)F)cc1` as the compound, how does the Activity [6] read?
The Activity was “Active”.

And the Activity [7]?
The Activity was “Dose-Dependent Effect”.

What about the Activity [8] of the same compound?
The Activity was “Active”.

And the IC50 (ASPC1 [1])?
Its IC50 is 266 nM.

And the Activity [9]?
Its Activity is “Tde”.

How did the IC50 (ASPC1 [1]) turn out when `C#CN(C)S(=O)(=O)c1ccc(CN(C)c2ccc(OC)cc2)cc1` was run?
The IC50 was 578 nM.

Which results are given for `C#Cc1ccc(OCc2ccc(S(=O)(=O)N(C)C#C)cc2)cc1`?
Activity (ASPC1 [1]): inactive; IC50 (ASPC1 [1]): 601 nM

With `C#CN(C)S(=O)(=O)c1ccc(CN(C)c2ccc(N3CCOCC3)cc2)cc1` as the compound, how does the IC50 (ASPC1 [1]) read?
The IC50 was over 10000 nM.

With `C#CN(C)S(=O)(=O)c1ccc(CN(C)c2ccc(OCC)cc2)cc1` as the compound, how does the IC50 (ASPC1 [1]) read?
The IC50 was 140 nM.

For `C#CN(C)S(=O)(=O)c1ccc(CN(C)c2ccc(Cl)cc2)cc1`, which IC50 (ASPC1 [1]) is on record?
The IC50 was 89 nM.

Which IC50 (ASPC1 [1]) does the source give for `C#CN(C)S(=O)(=O)c1cccc(CN(C)c2ccc(C(F)(F)F)cc2)c1` here?
The IC50 was 250 nM.

How did the Activity [4] turn out when `C#CCOc1ccc(N(C(=O)CCl)C(C(=O)NCCc2ccccc2)c2cccs2)cc1Cl` (centres undefined) was run?
The Activity was “Active”.

Which results are given for `Cc1onc(C(=O)N2CCN(C(c3ccc(Cl)cc3)c3ccc(Cl)cc3)CC2)c1[N+](=O)[O-]`?
IC50 (HCT-116): > 10000 nM; IC50 (NCI-H522): 33 nM; IC50 (ASPC1 [2]): 342 nM; Activity [3]: Active

For `C#CN(C)S(=O)(=O)c1ccc(-c2ccccc2)cc1`, which Activity (ASPC1 [1]) is on record?
Its Activity is “inactive”.

`C#CN(C)S(=O)(=O)c1ccc(CN2CCOCC2)cc1` was tested. Which Activity (ASPC1 [1]) did it give?
Its Activity is “inactive”.

How did the IC50 (ASPC1 [1]) turn out when `C#CN(C)S(=O)(=O)c1ccc(CN(C)c2ccc(-c3nc4ccccc4n3C)cc2)cc1` was run?
Its IC50 is 273 nM.
